Columns and labels:
[1] = Half-life in human liver microsomes (HLM); assay type: in vitro ADME; settings: human liver microsomes (HLM, HL101); human liver microsomes 0.78 mg/mL, 1 μM compound, NADPH, pH 7.4, 37° C.
Description: Test compounds (1 μM) are incubated with 3.3 mM MgCl2 and 0.78 mg/mL HLM (HL101) in 100 mM potassium phosphate buffer (pH 7.4) at 37° C. on the 96-deep well plate. The reaction mixture is split into two groups, a non-P450 and a P450 group. NADPH is only added to the reaction mixture of the P450 group. An aliquot of samples of P450 group is collected at 0, 10, 30, and 60 min time point, where 0 min time point indicated the time when NADPH is added into the reaction mixture of P450 group. […] Collected aliquots are extracted with acetonitrile solution containing an internal standard. […] The compound concentration in supernatant is measured by LC/MS/MS system.
The half-life value is obtained by plotting the natural logarithm of the peak area ratio of compounds/internal standard versus time. The slope of the line of best fit through the points yields the rate of metabolism (k). This is converted to a half-life value using following equations:

[2] = biological target: T1, P2X7 receptor (IL-1β release from THP-1 cells) (Homo sapiens, UniProt Q99572); assay: IL-1β release assay in differentiated THP-1 cells stimulated with BzATP (Example 9); assay type: cell-based; settings: for inhibition at 0.3 µM: 0.3 μM concentration, BzATP 250 uM, read-out: IL-1β % Inhib. @ 0.3 or 0.1 μM; for IC50: released IL-1β as in Example 9, four parameter logistic fit
T1 construct: host or cells: THP-1 cells differentiated with LPS and IFN-γ
T1 sequence (Q99572 1-595): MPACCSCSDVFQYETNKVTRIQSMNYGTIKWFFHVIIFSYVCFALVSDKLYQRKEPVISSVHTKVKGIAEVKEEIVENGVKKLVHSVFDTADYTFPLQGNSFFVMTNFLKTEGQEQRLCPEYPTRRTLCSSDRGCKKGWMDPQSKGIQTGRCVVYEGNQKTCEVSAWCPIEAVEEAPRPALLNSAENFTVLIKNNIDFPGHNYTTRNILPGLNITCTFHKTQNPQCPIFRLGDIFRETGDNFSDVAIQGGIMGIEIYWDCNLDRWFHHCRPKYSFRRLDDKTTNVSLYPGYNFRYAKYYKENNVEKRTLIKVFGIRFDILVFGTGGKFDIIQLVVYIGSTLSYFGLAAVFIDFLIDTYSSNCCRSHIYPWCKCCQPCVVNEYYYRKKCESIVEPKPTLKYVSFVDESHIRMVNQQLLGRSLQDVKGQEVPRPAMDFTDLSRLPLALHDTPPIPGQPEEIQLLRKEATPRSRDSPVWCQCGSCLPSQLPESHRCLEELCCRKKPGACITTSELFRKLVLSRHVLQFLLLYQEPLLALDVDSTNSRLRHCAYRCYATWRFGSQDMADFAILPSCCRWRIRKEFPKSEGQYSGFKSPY
Description: The cells are then pretreated for 30 minutes with the compound of interest at the appropriate concentration in RPMI media containing 100 IU/mL penicillin, 100 ug/mL streptomycin. […] 30 uL of cell supernatant is then collected and IL-1β levels determined via ELISA (R&D systems Cat. #HSLB50) according to manufacturer's recommendations using the Tecan Safire plate reader. Background adjusted IL-1β levels of drug treated and non-treated cells are used to calculate the percent inhibition.
The compounds set forth in Table 1 were tested for activity in a cellular model as described herein. […] Measurements were made and IC50 values, presented in Table 2, below, were determined by fitting the data to a four parameter logistic equation using GraphPad Prism software (GraphPad Software, Inc). The equation may be expressed by the following formula:
Y=Bottom+(Top−Bottom)/(1+10̂((Log EC50−X)*HillSlope))
Where X is the logarithm of concentration, Y is the response and Y starts at Bottom and goes to Top with a sigmoid shape.

[3] = Pharmacokinetic evaluation following intravenous and oral administration in rats; assay type: in vivo; settings: rat, plasma; male Sprague-Dawley rats; PO 1 to 5 mg/kg vs IV, AUCinf dose-normalized; mean % F
Description: Male Sprague-Dawley rats are acclimatized for at least 24 hours prior to experiment initiation. During the acclimation period, all animals receive food and water ad libitum. However, food but not water is removed from the animals' cages at least 12 hours before initiation of the experiment. During the first 3 hours of experimentation, the animals receive only water ad libitum. At least three animals each are tested for intravenous and oral dosage. For intravenous formulation, compounds were dissolved (0.25 to 1 mg/mL) in a mixture of 3% dimethyl sulfoxide, 40% PEG 400 and the rest percentage of 40% Captisol in water (w/v). The animals are weighed before dosing. The determined body weight is used to calculate the dose volume for each animal.
Dose volume (mL/kg)=1 mg/kg/formulation concentration (mg/mL)
In instances where the formulation concentrations were less than 0.5 mg/mL, the dosing volume is about 2 mL/kg.
For oral formulation, compounds of this invention are suspended (0.5 to 0.75 mg/mL) in a mixture of 5% of 10% Tween 80 in water (v/v) and 95% of 0.5% methyl cellulose in water (w/v). PO rats are typically dosed through oral gavage following the same dose volume formula as IV to achieve a dose level of 1 to 5 mg/kg. For IV dosing, blood samples are collected (using a pre-heparinized syringe) via the jugular vein catheter at 2, 5, 15, 30, 60, 120, 180, 300, 480, and 1440 minutes post dosing. For PO dosing, blood samples are collected (using a pre-heparinized syringe) via the jugular vein catheter before dosing and at 5, 15, 30, 60, 120, 180, 300, 480, and 1440 minutes post dosing. About 250 uL of blood is obtained at each time point from the animal. Equal volumes of 0.9% normal saline are replaced to prevent dehydration. The whole blood samples are maintained on ice until centrifugation. Blood samples are then centrifuged at 14,000 rpm for 10 minutes at 4° C. and the upper plasma layer transferred into a clean vial and stored at −80° C. The resulting plasma samples are then analyzed by liquid chromatography-tandem mass spectrometry. Following the measurement of plasma samples and dosing solutions, plasma concentration-time curve is plotted. Plasma exposure is calculated as the area under the concentration-time curve extrapolated to time infinite (AUCinf). The AUCinf is averaged and the oral bioavailability (% F) for individual animal is calculated as:
AUCinf(PO)/AUCinf(IV), normalized to their respective dose levels.
The % F is reported as the mean % F of all animals dosed orally with the compound of the invention at the specified level (Table 4).

SMILES: CC12CC3CC(C)(C1)CC(CC(=O)Nc1cccc4c(=O)n(C(CO)CO)ccc14)(C3)C2 [Compound 519]
- half-life at 1 μM [1]: 42.6 min
- inhibition at 0.3 µM [2]: > 76%
- IC50 [2]: 0.11 nM

SMILES: NC(=O)[C@@H](CO)n1ccc2c(NC(=O)CC34CC5CC(CC(C5)C3)C4)cccc2c1=O [Compound 599, (R)-2-[5-(2-Adamantan-1-yl-acetylamino)-1-oxo-1H-isoquinolin-2-yl]-3-hydroxy-propionamide]
- bioavailability [3]: 0 to 25%
- half-life at 1 μM [1]: 42 min
- inhibition at 0.3 µM [2]: > 76%
- IC50 [2]: 1.09 nM

SMILES: O=C(CC12CC3CC(CC(C3)C1)C2)Nc1cccc2c(=O)n(CCO)ccc12 [Compound 511]
- half-life at 1 μM [1]: 27 min
- inhibition at 0.3 µM [2]: > 76%
- IC50 [2]: 1.34 nM

SMILES: C[C@H](C(N)=O)n1ccc2c(NC(=O)CC34CC5CC(CC(C5)C3)C4)c(Cl)ccc2c1=O [Compound 602, (R)-2-[5-(2-Adamantan-1-yl-acetylamino)-6-chloro-1-oxo-1H-isoquinolin-2-yl]-propionamide]
- bioavailability [3]: 0 to 25%
- half-life at 1 μM [1]: 45.6 min
- IC50 [2]: 0.088 nM

SMILES: O=C(CC12CC3CC(CC(C3)C1)C2)Nc1cccc2c(=O)n(CC3CCNCC3)ccc12 [Compound 501]
- bioavailability [3]: 0 to 25%
- half-life at 1 μM [1]: 22.8 min
- inhibition at 0.3 µM [2]: > 76%
- IC50 [2]: 6.17 nM

SMILES: O=C(CC12CC3CC(CC(C3)C1)C2)Nc1cccc2c(=O)n(C(CO)Cc3c[nH]cn3)ccc12 (stereo not shown) [Compound 515]
- half-life at 1 μM [1]: 91.2 min
- inhibition at 0.3 µM [2]: > 76%
- IC50 [2]: 1.3 nM

SMILES: C[C@@H](C(N)=O)n1ccc2c(NC(=O)CC34CC5CC(CC(C5)C3)C4)cccc2c1=O [Compound 572, (S)-2-[5-(2-Adamantan-1-yl-acetylamino)-1-oxo-1H-isoquinolin-2-yl]-propionamide]
- bioavailability [3]: 26 to 50%
- half-life at 1 μM [1]: 40.8 min
- IC50 [2]: 1.21 nM

SMILES: O=C(CC12CC3CC(CC(C3)C1)C2)Nc1cccc2c1CCN(C(CO)CO)C2=O [Compound 508]
- bioavailability [3]: 0 to 25%
- half-life at 1 μM [1]: 49.8 min
- inhibition at 0.3 µM [2]: > 76%
- IC50 [2]: 0.779 nM

SMILES: CC(C(N)=O)n1ccc2c(NC(=O)CC34CC5CC(CC(C5)C3)C4)cccc2c1=O (stereo not shown) [Compound 530]
- bioavailability [3]: 0 to 25%
- half-life at 1 μM [1]: 34.8 min
- inhibition at 0.3 µM [2]: 26 to 50%
- IC50 [2]: 4.37 nM

SMILES: C[C@H](C(=O)O)n1ccc2c(NC(=O)CC34CC5CC(CC(C5)C3)C4)cccc2c1=O [Compound 601]
- bioavailability [3]: 0 to 25%
- half-life at 1 μM [1]: 22.2 min
- inhibition at 0.3 µM [2]: > 76%
- IC50 [2]: 9.08 nM

SMILES: CC(C(=O)Nc1cccc2c(=O)n([C@H](C)C(N)=O)ccc12)C1CCCCCC1 (stereo partly shown) [Compound 600]
- bioavailability [3]: 0 to 25%
- half-life at 1 μM [1]: 15 min
- inhibition at 0.3 µM [2]: > 76%
- IC50 [2]: 12.2 nM

SMILES: O=C(CC12CC3CC(CC(C3)C1)C2)Nc1cccc2c(=O)n(C(CO)CO)ccc12 [Compound 507]
- bioavailability [3]: 0 to 25%
- half-life at 1 μM [1]: 34.8 min
- inhibition at 0.3 µM [2]: > 76%
- IC50 [2]: 0.198 nM

SMILES: O=C(CC1(O)CCCCCC1)Nc1cccc2c(=O)n(CCO)ccc12 [Compound 520]
- bioavailability [3]: 26 to 50%
- half-life at 1 μM [1]: 72.6 min
- inhibition at 0.3 µM [2]: 51 to 75%
- IC50 [2]: 165 nM

SMILES: CC(C)[C@H](C(N)=O)n1ccc2c(NC(=O)CC34CC5CC(C)(CC(C)(C5)C3)C4)cccc2c1=O [Compound 529]
- bioavailability [3]: 0 to 25%
- half-life at 1 μM [1]: 39 min
- inhibition at 0.3 µM [2]: 26 to 50%
- IC50 [2]: 4.65 nM

SMILES: C[C@H](CO)n1ccc2c(NC(=O)CC3CCCCCC3)cccc2c1=O [Compound 606, 2-Cycloheptyl-N-[2-((R)-2-hydroxy-1-methyl-ethyl)-1-oxo-1,2-dihydro-isoquinolin-5-yl]-acetamide]
- bioavailability [3]: 0 to 25%
- half-life at 1 μM [1]: 23.4 min
- inhibition at 0.3 µM [2]: > 76%
- IC50 [2]: 4.59 nM

SMILES: C[C@H](C(N)=O)n1ccc2c(NC(=O)CC34CC5CC(CC(C5)C3)C4)cccc2c1=O [Compound 559]
- bioavailability [3]: 0 to 25%
- half-life at 1 μM [1]: 16.2 min
- inhibition at 0.3 µM [2]: > 76%
- IC50 [2]: 0.365 nM

SMILES: O=C(CC1CCCCCC1)Nc1cccc2c(=O)n(CCO)ccc12 [Compound 544]
- bioavailability [3]: 0 to 25%
- half-life at 1 μM [1]: 20.4 min
- inhibition at 0.3 µM [2]: > 76%
- IC50 [2]: 27.8 nM

SMILES: C[C@H](C(N)=O)n1ccc2c(NC(=O)CC3(O)CCCCCC3)cccc2c1=O [Compound 555]
- bioavailability [3]: 26 to 50%
- half-life at 1 μM [1]: 45.6 min
- inhibition at 0.3 µM [2]: > 76%
- IC50 [2]: 41.3 nM

SMILES: C[C@H](C(N)=O)n1ccc2c(NC(=O)CC3CCCCCC3)cccc2c1=O [Compound 558]
- bioavailability [3]: 0 to 25%
- half-life at 1 μM [1]: 61.2 min
- inhibition at 0.3 µM [2]: > 76%
- IC50 [2]: 23.8 nM

SMILES: CC(CO)n1ccc2c(NC(=O)CC34CC5CC(CC(C5)C3)C4)cccc2c1=O (stereo not shown) [Compound 517, 2-Adamantan-1-yl-N-[2-(2-hydroxy-1-methyl-ethyl)-1-oxo-1,2-dihydro-isoquinolin-5-yl]-acetamide]
- half-life at 1 μM [1]: 26.4 min
- inhibition at 0.3 µM [2]: > 76%
- IC50 [2]: 0.33 nM

SMILES: O=C(CC12CC3CC(CC(C3)C1)C2)Nc1cccc2c1CCN(CC1CCNCC1)C2=O [Compound 512]
- half-life at 1 μM [1]: 44.4 min
- inhibition at 0.3 µM [2]: > 76%
- IC50 [2]: 7.62 nM

SMILES: CC12CC3CC(C)(C1)CC(CC(=O)Nc1cccc4c(=O)n(CC5CCNCC5)ccc14)(C3)C2 [Compound 518, 2-(3,5-Dimethyl-adamantan-1-yl)-N-(1-oxo-2-piperidin-4-ylmethyl-1,2-dihydro-isoquinolin-5-yl)-acetamide]
- bioavailability [3]: 0 to 25%
- half-life at 1 μM [1]: 324 min
- inhibition at 0.3 µM [2]: > 76%
- IC50 [2]: 60.1 nM

SMILES: C[C@H](CO)n1ccc2c(NC(=O)CC34CC5CC(CC(C5)C3)C4)cccc2c1=O [Compound 522]
- half-life at 1 μM [1]: 28.8 min
- inhibition at 0.3 µM [2]: > 76%
- IC50 [2]: 1.81 nM

SMILES: C[C@H](CO)N1CCc2c(NC(=O)CC34CC5CC(CC(C5)C3)C4)cccc2C1=O [Compound 526]
- bioavailability [3]: 0 to 25%
- half-life at 1 μM [1]: 37.8 min
- inhibition at 0.3 µM [2]: > 76%
- IC50 [2]: 1 nM

— US20100184802A1, “Bicycloheteroaryl Compounds as P2X7 Modulators and Uses Thereof” (priority 2006, published 2010)
